SMILES strings stand for the structures. Where two headings read alike, the source gives them in different places.

A short description of series [1]: Mouse liver microsomal stability in vitro. It counts as in vitro ADME. To be noted: liver microsomes, read-out: MLM t1/2.
Protocol: Selected compounds were assessed for their aqueous solubility, Log D and mouse and human liver microsomal stability.
Series [2] relates to LN229 glioma cell line. The experiment in a line: PrestoBlue cell viability assay. It counts as cell-based. Particulars: Homo sapiens, LN-229; LN229, 48 hours of treatment. The protocol: (§1) PrestoBlue cell viability reagent (ThermoFisher Scientific; Waltham, MA) was used for cell viability assays. The inhibitory dose-response data were normalized to the control (treatment with vehicle); the inhibitory dose-response curves, which were fitted by using Boltzmann equation, and the corresponding IC50s were generated by using OriginPro software (OriginLab Corporation, CA).
(§2) The glioma suppressive potentials of the new class of HuR multimerization inhibitors were evaluated by utilizing SRI-41664 and SRI-42127 compounds in several cell-based assays. First, it was confirmed that the SRI-41664 and SRI-42127 compounds are cytotoxic for established and PDGx cell lines. FIG. 5A illustrates the inhibitory dose responses of SRI-41664 and SRI-42127 compounds in the established U251, LN229, and the PDGx XD456 glioma cell lines. […] An HuR-overexpression approach was employed to confirm SRI-42127 inhibitory potency against HuR dimerization.

Series [3] relates to U251 glioma cell line. The experiment in a line: PrestoBlue cell viability assay. To be noted: Homo sapiens, U-251, 48 h. The series is classed as cell-based. The protocol:
as §1, §2

Series [4] deals with PDGx XD456 glioma cell line. The experiment in a line: PrestoBlue cell viability assay. The series is classed as cell-based. As to the method: as §1, §2
Series [5] concerns inflammatory cytokine mRNAs in astrocytes. Description: inflammatory cytokine mRNAs in LPS-stimulated astrocytes. The series is classed as cell-based. As to the method: Next, the impact of SRI-42127 on induction of inflammatory cytokine mRNAs as depicted in FIG. 15, Panel B was assessed. A significant 3-4-fold suppression of mRNA for IL-1β, IL-6, CXCL1, and CCL2 was observed. […] All chemokines were likewise suppressed, including KC, CCL2, CCL3, CCL4, CXCL10, from 2.5 to 8.1-fold.

Series [6] concerns LN229 glioma cell line. The experiment in a line: cell cycle analysis (propidium iodide, flow cytometry). It counts as cell-based. Particulars: LN229, 10 uM for 18 hours. As to the method:
(§3) Cell cycle distribution was evaluated using a standard staining procedure with propidium iodide (PI) (Sigma-Aldrich; St. Louis, MO) followed by flow cytometry. For cell cycle analysis, cells were plated at low density and synchronized by starvation in serum-free media for 48 hours, then treated with drug or vehicle (control) for 18 hours in normal media with 10% serum. Next, cells were collected, washed, and resuspended in ice-cold phosphate buffered saline (PBS). Cells were fixed under gentle vortexing by dropwise addition of a 10×volume of ice-cold 80% ethanol (−20° C.) on ice. Subsequently, samples were stored at −20° C. for at least 18 hours until data acquisition. Before cell cycle analysis, cells were washed in PBS and treated with RNase A (200 μg/mL, in PBS) and PI (20 μg/mL) for 45 minutes at 23° C. Acquisition of at least 10000 events per sample was performed in UAB Flow Cytometry Facility. Data were analyzed by FlowJo v10 software (Becton, Dickinson and Company; Franklin Lakes, NJ).
(§4) HuR is one of the key regulators of cell cycle progression in cancer cells, particularly high-grade glioma; therefore, the arrest of cell cycle progression by the newly identified compounds supports HuR-targeted inhibition. FIG. 5B illustrates representative histograms of cell cycle progression in the established U251, LN229, and the PDGx XD456 glioma cell lines in the control (treatment with vehicles) and after treatment with SRI-42127. The bar graph represents the average numbers of cells in each phase of the cell cycle after treatment with the SRI-42127 normalized to the corresponding control values (vehicle treatment). There was a significant accumulation of cells in the G1 phase and a reduction of cells in the S phase after treatment with SRI-42127, 10 uM for 18 hours. […] The average reductions of cells in the S phase were 65±4% (n=3), 60±3% (n=3), and 70±3% (n=3) in U251, LN229, and XD456 cell lines, respectively, after treatment with SRI-42127 compared to the control.
(In general: In flow cytometry, cells or beads pass a laser one at a time.)

Series [7] has as its system U251 glioma cell line. The series is described as above. It counts as cell-based. To be noted: U251, 10 uM for 18 hours. The protocol: as §3, §4
Series [8] has as its system PDGx XD456 glioma cell line. The description is as above. The series is classed as cell-based. Particulars: XD456, 10 uM for 18 hours. As to the method:
as §3, §4

For another series, the target named is AAK1 (Homo sapiens, UniProt Q2M2I8). The experiment in a line: SelectScreen kinase profiling, LanthaScreen Binding. The protocol:
The kinase inhibitory potentials of compounds as described herein (e.g., SRI-42127 and SRI-41664) were evaluated by ThermoFisher Scientific's SelectScreen™ Kinase Profiling Service. The following kinase inhibitory assays were utilized: ZLYTE (Madison, WI) for NTRK1, PIM1, and cMET kinases; LanthaScreen Binding (Madison, WI) for AAK1 kinase; and Adapta (Madison, WI) for IRAK1 kinase.
In general terms: In TR-FRET formats the signal depends on donor and acceptor labels being close together.

In series [9] the test system is U251 cells expressing Fluc construct. Description: control Fluc (full length luciferase) reporter assay in U251 cells. It counts as cell-based. The procedure, abridged:
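U251 cells carrying HuR fused to N- or C-terminal split firefly luciferase halves (dimer reporter) or full-length Fluc (control); constructs induced with doxycycline 0.75 ug/ml for 48 h. Compounds at various concentrations vs vehicle for 6 h. Luciferin-driven luminescence read; mean+SD.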
For orientation: Reporter assays use an easily measured gene product as a stand-in for the process of interest.

AAK1, sequence (Q2M2I8 whole entry): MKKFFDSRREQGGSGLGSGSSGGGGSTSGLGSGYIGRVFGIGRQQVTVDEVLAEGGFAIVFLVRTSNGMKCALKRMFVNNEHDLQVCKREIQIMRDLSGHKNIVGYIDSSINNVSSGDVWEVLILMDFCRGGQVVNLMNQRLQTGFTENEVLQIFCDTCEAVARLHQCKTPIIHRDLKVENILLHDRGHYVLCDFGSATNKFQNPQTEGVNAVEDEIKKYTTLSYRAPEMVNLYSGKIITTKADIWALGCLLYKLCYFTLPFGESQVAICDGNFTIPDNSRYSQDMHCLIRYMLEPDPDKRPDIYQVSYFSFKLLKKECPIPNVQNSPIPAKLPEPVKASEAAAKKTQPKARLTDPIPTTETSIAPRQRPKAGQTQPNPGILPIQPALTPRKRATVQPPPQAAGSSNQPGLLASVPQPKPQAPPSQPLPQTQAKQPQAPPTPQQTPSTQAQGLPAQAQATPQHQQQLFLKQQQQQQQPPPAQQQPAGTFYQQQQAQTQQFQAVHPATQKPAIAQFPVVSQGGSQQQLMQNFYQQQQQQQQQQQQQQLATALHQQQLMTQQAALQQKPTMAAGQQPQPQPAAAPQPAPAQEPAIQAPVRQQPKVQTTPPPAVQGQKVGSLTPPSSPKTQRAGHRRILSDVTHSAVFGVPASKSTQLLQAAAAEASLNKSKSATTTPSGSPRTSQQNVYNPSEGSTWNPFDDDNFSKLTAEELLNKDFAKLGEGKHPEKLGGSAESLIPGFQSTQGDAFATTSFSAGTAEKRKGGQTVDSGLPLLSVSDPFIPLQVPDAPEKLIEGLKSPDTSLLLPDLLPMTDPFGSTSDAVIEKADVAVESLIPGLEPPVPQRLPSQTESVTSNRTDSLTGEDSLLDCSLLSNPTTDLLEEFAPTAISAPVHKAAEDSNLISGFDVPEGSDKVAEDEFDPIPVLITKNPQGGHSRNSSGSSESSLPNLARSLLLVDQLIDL

In general, IC50 refers to the point on the concentration scale where inhibition reaches its midpoint. As for `CN(c1ccc2ncc(-c3ccc4cn[nH]c4c3)n2n1)C1CCOCC1` [Compound 19], in series [1], the half-life is 3.3 min. In addition, the half-inhibitory concentration (IC50) in the series with LN229 glioma cell line [2] was 3.2 ± 0.6 µM; in the series on U251 glioma cell line [3] (U251, 48 hours of treatment, read-out: IC50 cell viability) it was 2800 ± 600 nM; in the series on U251 glioma cell line [3] (U251 with dox-inducible HuR-dimerization reporters, after enhancement of HuR-dimer formation by two fold, 48 hours, read-out: IC50 for inhibition of cell viability), 8000 ± 800 nM; in the series with U251 glioma cell line [3] (U251 with dox-inducible HuR-dimerization reporters, before enhancement of HuR-dimer formation, 48 hours, read-out: IC50 for inhibition of cell viability) it was 2800 ± 400 nM; in series [4] (Glioma cell, XD456, 48 hours of treatment), 4 ± 0.6 µM; at AAK1, 120 nM. Besides, in series [4] (XD456, enhancement of HuR-dimer formation approximately by two-fold, 48 hours), the “increase of IC50 for inhibition of cell viability” value stood at 1.9±0.2 fold. For the same molecule, in series [5], the “suppression of mRNA for IL-1β, IL-6, CXCL1, and CCL2” value is on record as 3-4 fold. In [5] (1.0 μM), the “increase of IL-10 mRNA” value was ~3 fold. In addition, the entries for the “increase of cells in the G1 phase compared to the control” value (in the series on LN229 glioma cell line [6]; with U251 glioma cell line [7]; in series [8]) were 56±28%, 97±33% and 210±40%, respectively. Besides, the “reduction of cells in the S phase compared to the control” value in the series with LN229 glioma cell line [6] amounted to 60±3%; in the series on U251 glioma cell line [7], 65±4%; in series [8], 70±3%. Moreover, the “decrease of luminescence signal from cells overexpressing the control Fluc construct” value in series [9] (6 hours, represents the cytotoxic effect) stood at 26±9%. Besides, in series [9] (Homo sapiens, U-251, 6 h, Concn 50 uM, read-out: Fluc Imax % Inh), the inhibition at 50 µM turned out to be 26%.

Values taken from US12435091B2, “RNA-binding protein multimerization inhibitors and methods of use thereof” (THE UAB RESEARCH FOUNDATION, priority 2020, dated 2025).
